This test concerns the target nsp12 (Severe acute respiratory syndrome coronavirus 2, UniProt P0DTD1). The test can be described thus: SPR binding to nsp12. Also on record: species or system SARS-CoV-2.

The compound `CC1(C)[C@@H](O)CC[C@]2(C)[C@H]3C(=O)C=C4[C@@H]5C[C@@](C)(C(=O)O)CC[C@]5(C)CC[C@@]4(C)[C@]3(C)CC[C@@H]12` [GA, glycyrrhetinic acid] had a Kd of 416 µM.

(Values after PMC8620242 (Journal of Advanced Research, 2021).)
